In patent US20240101584A1, “TARGETED DELIVERY OF 1,2,4,5 TETRAOXANE COMPOUNDS AND THEIR USES” (Westlake University, priority 2021, published 2024):
Like-named read-outs stand apart in the source and are kept apart here.

What was measured:
[1] = tested on: HEK293 cells; test: MTT viability assay, HEK293 cells; assay type: cell-based; conditions: Homo sapiens, HEK293, 48 h incubation, mean, n = 3, read-out: IC50 against HEK293 cells
[2] = tested on: HepG2 cells; test: MTT viability assay, HepG2 cells; assay type: cell-based, human
Experimental: (§1) The anticancer activities of the exemplary compounds listed in Example 1 were tested against human cervix Hela cells, mammary breast cancer MDA-MB-231 cells, human hepatocellular HepG2 cells, human colorectal HCT116 cells, mammary ductal T47D cells, non-cancerous NIH3T3 cells, dog's kidney MDCK cells, and mouse brain bEnd.3 cells, respectively.

[3] = tested on: NIH3T3 cells; test: MTT viability assay, non-cancerous NIH3T3 cells; assay type: cell-based; conditions: Mus musculus, NIH3T3
Experimental: as §1

[4] = tested on: MDCK cells; test: MTT viability assay, MDCK cells; assay type: cell-based, dog; conditions: Canis lupus familiaris, MDCK, 48 h incubation, mean, n = 3, read-out: IC50 against MDCK cells
Experimental: as §1

[5] = tested on: bEnd.3 cells; test: MTT viability assay, bEnd.3 cells; assay type: cell-based, mouse; conditions: Mus musculus, BEND3, 48 h incubation, mean, n = 3, read-out: IC50 against bEnd.3 cells
Experimental: as §1

[6] = tested on: PLC; test: Viability IC50, PLC cells; assay type: cell-based; conditions: Table 12a
[7] = tested on: HEYA8 CSCs; test: CellTiter-Glo viability, HeyA8 cancer stem cells (spheres); assay type: cell-based; conditions: for IC50: HEY A8, cancer stem cell spheres, CellTiter-Glo, 48 hrs, n = 3, read-out: IC50 HeyA8sp (HEYA8 CSCs); for cell viability of ovarian cancer cells and cancer stem cells (FIG. 3C, words): both ovarian cancer cells and CSCs
[8] = tested on: NIH3T3; test: CellTiter-Glo viability, NIH3T3 cells (Table 14); assay type: cell-based; conditions: Mus musculus, 48 hrs, n = 3
[9] = tested on: MDA-MB-231 cells; test: Ferroptosis inhibitor rescue (Fer-1, liproxstatin-1) in MDA-MB-231 cells; assay type: cell-based; conditions: 24 h; for effect of Fer-1 on MDA-MB-231 cell death: Fer-1 50 μM
Experimental: FIG. 8A is a bar graph showing the effect of Fer-1 (50 μM) on MDA-MB-231 cells treated with compounds 37b, 37a, and 30b, respectively, at the indicated concentrations for 24 h. […], **P≤0.01, ***P≤0.001 versus non-pretreated cells, N.S., no statistically significant change. Data represent mean±SD, n=3 biologically independent samples. All P values were determined using two-tailed Student's t-test.
FIG. 8B is a bar graph showing the effect of Fer-1 (50 μM) on MDA-MB-231 cells treated with compounds 6b, 48, 30a, and 37f, respectively, at the indicated concentrations for 24 h. *P≤0.01, **P≤0.002, ***P≤0.001 versus non-pretreated cells. Data represent mean±SD, n=3 biologically independent samples. FIG. 8C is a bar graph showing the effect of Fer-1 and DFO on MDA-MB-231 cells treated with compounds 56 and 53, respectively, at the indicated concentrations for 24 h. *P≤0.01, **P≤0.002, ***P≤0.001 versus non-pretreated cells. All P values were determined using two-tailed Student's t-test.
FIG. 9 is a bar graph showing the effect of liproxstatin ([…]) on MDA-MB-231 cells treated with compounds 48 and 37b, respectively, at the indicated concentrations for 24 h. **P≤0.01 versus non-pretreated cells. Data represent mean±SD, n=3 biologically independent samples. All P values were determined using two-tailed Student's t-test.
Fer-1 was used to investigate the cell death pathway induced by the compounds described herein. Liproxstatin-1 was used to further confirm whether 48 and 37b triggered off ferroptosis in MDA-MB-231 cells.

[10] = tested on: lipid ROS in MDA-MB-231 cells; test: C11-BODIPY lipid ROS detection in MDA-MB-231 cells; assay type: cell-based; conditions: 48 5 μM, 37b 1 μM, RSL3 0.5 μM; 6 h incubation
Experimental: FIG. 11 is a bar graph showing the detection of lipid ROS with compound 48 (5 μM), compound 37b (1 μM), or RSL3 (0.5 μM) by BODIPY 581/591 C11 after 6 h incubation in MDA-MB-231 cells. **P≤0.01 versus DMSO group. Data are plotted as the mean±SD, n=3 biologically independent samples. All P values were determined using two-tailed Student's t-test.
Since lipid peroxidation is the evidence about ferroptosis, C11-BODIPY probe is used to validate the lipid ROS generated by tetraoxanes. It is a ratiometric membrane-targeted probe which changes the emission from 590 nm to 510 nm upon the detection of lipid ROS. Here, MDA-MB-231 cells were treated with 48, 37b and RSL3, respectively. The lipid ROS levels were quantified by flow cytometry. Untreated group gave weak signal in FL1 channel (FIG. 11).

[11] = tested on: HEYA8 CSCs; test: Protective effect of Q-VD-OPh, DFX and Fer-1 on HEYA8 CSCs; assay type: cell-based; conditions: for cell death pathway: HEYA8 cancer cells and CSCs
Experimental: FIGS. 5A-5B are bar graphs showing the protective effect of Q-VD-OPh, deferasirox (DFX) and ferrostatin-1 (Fer-1) on HeyA8 cancer stem cells (FIG. 5A) and HeyA8 spheres (FIG. 5B) after treatment with compound 48 and compound 37b, respectively, for 24 h. *P≤0.05, **P≤0.01 versus non-pretreated group. Data are plotted as the mean±SD, n=3 biologically independent samples. N.S., no statistically significant change. All P values were determined using two-tailed Student's t-test.

[12] = tested on: Jurkat cells; test: MTT viability assay, Jurkat cells; assay type: cell-based; conditions: Homo sapiens, 48 h incubation, mean, n = 3, read-out: IC50 against Jurkat cells
[13] = tested on: HL-60 cells; test: MTT viability assay, HL-60 cells; assay type: cell-based; conditions: for IC50: Homo sapiens, HL-60
[14] = tested on: HEY A8 cells; test: Protective effect of DFO and Fer-1 on adherent HEY A8 cells; assay type: cell-based; conditions: 24 h treatment
Experimental: FIG. 4 is a bar graph showing the protective effect of DFO and Fer-1 on HeyA8 cancer cells after treatment with compound 48 for 24 h. *P≤0.01, ***P≤0.001 versus non-pretreated group. Data represent mean±SD, n=3 biologically independent samples. All P values were determined using two-tailed Student's t-test.

[15] = MTT, 48 h incubation, mean, n = 3, read-out: IC50 against NIH3T3 cells
[16] = Table 12b, read-out: IC50 NIH3T3

| SMILES | IC50 [3, 15] [µM] | IC50 [3, 16] [µM] | IC50 [4] [µM] | IC50 [6] [µM] | IC50 [7] [µM] | cell viability of ovarian cancer cells and cancer stem cells (FIG. 3C, words) [7] | IC50 [8] [µM] | effect of liproxstatin-1 pretreatment on MDA-MB-231 cell death [9] | effect of Fer-1 on MDA-MB-231 cell death [9] | lipid ROS (BODIPY 581/591 C11, FL1, flow cytometry) [10] | cell death pathway [11] | further results |
| --- | --- | --- | --- | --- | --- | --- | --- | --- | --- | --- | --- | --- |
| CC(C)(C)C1CCC2(CC1)OOC1(CCC(OC(=O)NCCC[P+](c3ccccc3)(c3ccccc3)c3ccccc3)CC1)OO2.[Br-] (centres unmarked) [Compound 37b, (3-((((12-(tert-butyl)-7,8,15,16-tetraoxadispiro[5.2.59.26]hexadecan-3-yl)oxy)carbonyl)amino)propyl)triphenylphosphonium bromide] | 4.6 | 4.6 ± 1.9 | 9.5 | 2.7 ± 0.02 | 1.1 ± 0.4 | could diminish the cell viability | 4.6 ± 1.9 | prevented the cell death | subverted MDA-MB-231 cell death | lipid ROS was generated | induced ferroptosis instead of apoptosis | IC50 [1]: 1.6 µM; IC50 ([2]; Homo sapiens, HepG2, MTT, 48 h incubation, mean, n = 3, read-out: IC50 against HepG2 cells): 0.7 µM; fold more cytotoxic than RKA182 for HepG2 cells ([2]; comparator RKA182): 36 fold; IC50 [5]: 5.2 µM |
| CC(C)(C)C1CCC2(CC1)OOC1(CCC(OC(=O)NCCC[N+](C)(Cc3ccccc3)Cc3ccccc3)CC1)OO2.[I-] (centres unmarked) [Compound 48, N,N-dibenzyl-3-((((12-(tert-butyl)-7,8,15,16-tetraoxadispiro[5.2.59.26]hexadecan-3-yl)oxy)carbonyl)amino)-N-methylpropan-1-aminium iodide] | 29 ± 5.7 | 29 ± 5.7 | 28.2 | 3.9 ± 0.6 | 1.2 ± 0.5 | could diminish the cell viability | 29 ± 5.7 | prevented the cell death | subverted MDA-MB-231 cell death | lipid ROS was generated | ferroptosis | IC50 [12]: 1 µM; IC50 ([3]; Table 13, experimental data, MTT, 48 hrs, n = 3, read-out: IC50 NIH3T3): 29 ± 5.7 µM; IC50 ([13]; MTT, 48 h incubation, mean, n = 3, read-out: IC50 against HL-60 cells): 1.2 ± 0.9 µM; IC50 ([13]; Table 12b, read-out: IC50 HL-60): 1.2 ± 0.9 µM; IC50 ([13]; Table 13, experimental data, MTT, 48 hrs, n = 3, read-out: IC50 HL-60): 1.2 ± 0.9 µM; selectivity index (IC50 of NIH3T3 divided by IC50 on HL-60) ([13]; Table 13, value in bracket): (>24); fold more cytotoxic to HL-60 cells than OZ439 ([13]; comparator OZ439): at least 9 fold; fold more potent than RKA182 in HL-60 cells ([13]; comparator RKA182): 9 fold; fold more cytotoxic to HEYA8 CSCs than non-cancerous cells [7]: at least 24 fold; effect of DFO or Fer-1 pretreatment on induced cell death, adherent HEY A8 cells [14]: reversed the cell death; effect of Fer-1 co-treatment on HEYA8 CSCs ([11]; 24 h treatment): majority of the CSCs remained unaffected; effect of deferasirox (DFX) on cell death in HEYA8 CSCs ([11]; 24 h treatment): rescue part of the cell death |
